The values below come from ChEMBL document CHEMBL5523758, “Discovery of 2-Methyl-5-(1H-pyrazol-4-yl)pyridines and Related Heterocycles as Promising M4 mAChR Positive Allosteric Modulators for the Treatment of Neurocognitive Disorders” (J Med Chem, 2024).

Assay [1] concerns the target T1, Muscarinic acetylcholine receptor M4 (Homo sapiens) (UniProt P08173).
T1 sequence (whole entry): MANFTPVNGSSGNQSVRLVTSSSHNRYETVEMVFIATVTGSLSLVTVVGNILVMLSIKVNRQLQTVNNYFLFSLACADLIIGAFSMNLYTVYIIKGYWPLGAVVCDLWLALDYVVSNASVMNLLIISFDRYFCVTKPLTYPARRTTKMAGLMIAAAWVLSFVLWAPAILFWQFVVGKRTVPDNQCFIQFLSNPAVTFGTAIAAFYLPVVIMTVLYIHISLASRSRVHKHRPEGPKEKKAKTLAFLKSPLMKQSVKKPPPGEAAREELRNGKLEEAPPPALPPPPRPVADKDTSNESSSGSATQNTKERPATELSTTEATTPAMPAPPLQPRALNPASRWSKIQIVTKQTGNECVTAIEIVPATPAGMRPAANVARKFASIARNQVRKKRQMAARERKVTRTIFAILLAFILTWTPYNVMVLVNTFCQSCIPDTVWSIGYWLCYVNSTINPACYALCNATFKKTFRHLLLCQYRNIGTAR
Particulars: Flp-In-CHO, filed as positive allosteric modulator, time 8.0 min.

The target in assay [2] is T1, Muscarinic acetylcholine receptor M4 (Homo sapiens). Particulars: Flp-In-CHO, filed as positive allosteric modulator, time 8.0 min. The source holds these as a separate data set.
For assay [3] the target is unchanged. Particulars: Flp-In-CHO, dose 10.0 µM, time 8.0 min.
The target is the same in assay [4]. Particulars: Flp-In-CHO, filed as positive allosteric modulator, time 8.0 min. This is another data set of the same source.
Assay [5] has the same target. Particulars: Flp-In-CHO, filed as positive allosteric modulator, time 5.0 min.
For assay [6] the target is unchanged. Particulars: Flp-In-CHO.
Description: Positive allosteric modulation at human M4 mAChR stably expressed in Flp-In-CHO cells co-transfected with CAMYEL biosensor assessed as ACh-induced CAMYEL activation by measuring log of operational efficacy by BRET assay
Assay [7] shares this target. Particulars: Flp-In-CHO, time 5.0 min.
The target is the same in assay [8]. Particulars: Flp-In-CHO, filed as positive allosteric modulator.
Description: Positive allosteric modulation at human M4 mAChR stably expressed in Flp-In-CHO cells co-transfected with CAMYEL biosensor assessed as ACh-induced CAMYEL activation by measuring log of functional co-operativity by BRET assay
[9] abbreviates: filed as positive allosteric modulator.

In the case of `CN1Cc2ccc(-c3nc4ccccc4cc3-c3cnn(CC4CCCC4)c3)cc2C1=O`, the log(activity) was 2.01 in assay [1]; 1.56 in assay [4]; 1.92 in assay [5]; 0.84 in assay [6] (setting [9]); -0.28 in assay [7]; 1.99 in assay [8]. Besides, the pKb in assay [2] turned out to be 4.53. Moreover, the deltapEC50 in assay [3] is greater than 0.4.
For the compound `COC(=O)CCCn1cc(-c2ccc(C)nc2-c2ccc3c(c2)C(=O)N(C)C3)cn1`, the log(activity) in assay [1] amounted to 1.94; in assay [4], 1.05; in assay [6] (setting [9]), 0.18; in assay [8], 1.04. Besides, the pKb in assay [2] turned out to be 4.73.
As for `Cc1ccc(-c2cnn(CCCN)c2)c(-c2ccc3c(c2)C(=O)N(C)C3)n1`, the log(activity) in assay [1] is 1.56; in assay [4], 0.85; in assay [6], -0.47; in assay [8], 0.44. In assay [2], this compound yielded a pKb of 4.79.
In assay [3], `Cc1ccc(-c2cnn(CCCCC(=O)O)c2)c(-c2ccc3c(c2)C(=O)N(C)C3)n1` registered a deltapEC50 greater than 0.4.
On to `Cc1ccc(-c2cnn(CCC#N)c2)c(-c2ccc3c(c2)C(=O)N(C)C3)n1`, for which the log(activity) was 1.49 in assay [1], 0.88 in assay [4], -0.64 in assay [6] and 0.84 in assay [8]. The same compound yielded a pKb in assay [2] of 4.74. The compound further registered a deltapEC50 in assay [3] greater than 0.4.
Regarding `Cc1ccc(-c2cnn(CC3CCCC3)c2)c(-c2ccc3c(c2)C(=O)NC3)n1`, the log(activity) amounted to 2.15 in assay [1], 1.72 in assay [4], 0.5 in assay [6] (setting [9]) and 1.07 in assay [8]. In assay [2], this compound registered a pKb of 5.65.
On the same counts, the results for `Cc1ncc(-c2cnn(CC3CCCC3)c2)c(-c2ccc3c(c2)C(=O)N(C)C3)n1` are 1.92, 1.3, 0.1, 0.74 and 4.71.
In the case of `Cc1cnc(-c2ccc3c(c2)C(=O)N(C)C3)c(-c2cnn(CC3CCCC3)c2)c1`, the log(activity) is 2.53 in assay [1]; 2.17 in assay [4]; 2.3 in assay [5]; 1.17 in assay [6] (setting [9]); 0.08 in assay [7] (setting [9]); 2.12 in assay [8]. The pKb in assay [2] was 4.73.
Consider `Cc1ccc(-c2cnn(CC3CCCC3)c2)c(-c2ccc3c(c2)C(=O)N(CC#N)C3)n1`, for which the log(activity) in assay [1] is 1.94; in assay [4] it was 1.55; in assay [6] (setting [9]), 0.48; in assay [8], 1. The pKb in assay [2] came out at 5.26.
Regarding `Cc1ccc(-c2cnn(CCCCC#N)c2)c(-c2ccc3c(c2)C(=O)N(C)C3)n1`, the log(activity) in assay [1] was 1.93; in assay [4], 1.16; in assay [6] (setting [9]), 0.28; in assay [8] it was 1.03. In addition, the pKb in assay [2] stood at 4.55.
Compound `Cc1ccc(-c2cnn(CCCC(=O)O)c2)c(-c2ccc3c(c2)C(=O)N(C)C3)n1` registered a deltapEC50 in assay [3] greater than 0.4.
For `Cc1ccc(-c2cnn(CC3CCCC3)c2)c(-c2ccc3c(c2)C(=O)N(C)C3)n1`, the log(activity) in assay [1] was 1.74; in assay [4] it was 1.58; in assay [5] it was 1.89; in assay [6] (setting [9]), 0.25; in assay [7] (setting [9]), 0.02; in assay [8], 0.53. In assay [2], this compound returned a pKb of 5.86.
In assay [3], `Cc1ccc(-c2cnn(CCC(N)=O)c2)c(-c2ccc3c(c2)C(=O)N(C)C3)n1` had a deltapEC50 greater than 0.4.
Turning to `COC(=O)CCn1cc(-c2ccc(C)nc2-c2ccc3c(c2)C(=O)N(C)C3)cn1`, the log(activity) was 1.46 in assay [1], 0.73 in assay [4], -0.28 in assay [6] and 1.08 in assay [8]. In addition, the pKb in assay [2] turned out to be 4.57. The deltapEC50 in assay [3] was greater than 0.4.
Take `COC(=O)CCCCn1cc(-c2ccc(C)nc2-c2ccc3c(c2)C(=O)N(C)C3)cn1`: in assay [3], the deltapEC50 is greater than 0.4.
